Results from PubChem BioAssay AID330 (DTP/NCI, 2004).
Values joined by “and” are separate entries in the source; they are usually repeats but may differ in a detail not shown here. Equal values may be shown once. Inconclusive results and toxic doses are left out.

System: P388 leukemia ip, CD2F1 mice, survival T/C
Assay: NCI In Vivo Anticancer Drug Screen. Data for tumor model P388 Leukemia (intraperitoneal) in CD2F1 (CDF1) mice
Conditions: endpoint: median survival time, higher = longer survival
Method in brief: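 Mice carrying the transplanted tumor received test compound or vehicle. Survival was recorded in each group, and the value is the treated-group measurement divided by that of the vehicle-treated control group.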

[1] = dose: 60.0 mg/kg/injection, schedule: Q01DX005 (ip), vehicle: Klucel (hydroxypropylcellulose) (HPC)
[2] = dose: 120.0 mg/kg/injection, schedule: Q01DX005 (ip), vehicle: Klucel (hydroxypropylcellulose) (HPC)
[3] = dose: 240.0 mg/kg/injection, schedule: Q01DX005 (ip), vehicle: Klucel (hydroxypropylcellulose) (HPC)
[4] = dose: 50.0 mg/kg/injection, schedule: Q01DX005 (ip), vehicle: saline with Tween-80
[5] = dose: 100.0 mg/kg/injection, schedule: Q01DX005 (ip), vehicle: saline with Tween-80
[6] = dose: 200.0 mg/kg/injection, schedule: Q01DX005 (ip), vehicle: saline with Tween-80
[7] = dose: 50.0 mg/kg/injection, schedule: Q01DX005 (ip), vehicle: Klucel (hydroxypropylcellulose) (HPC)
[8] = dose: 100.0 mg/kg/injection, schedule: Q01DX005 (ip), vehicle: Klucel (hydroxypropylcellulose) (HPC)
[9] = dose: 200.0 mg/kg/injection, schedule: Q01DX005 (ip), vehicle: Klucel (hydroxypropylcellulose) (HPC)
[10] = dose: 50.0 mg/kg/injection, schedule: Q01DX009 (ip), vehicle: saline
[11] = dose: 100.0 mg/kg/injection, schedule: Q01DX009 (ip), vehicle: saline
[12] = dose: 200.0 mg/kg/injection, schedule: Q01DX009 (ip), vehicle: saline
[13] = dose: 400.0 mg/kg/injection, schedule: Q01DX009 (ip), vehicle: saline
[14] = dose: 100.0 mg/kg/injection, schedule: Q01DX009 (ip), vehicle: saline with Tween-80
[15] = dose: 200.0 mg/kg/injection, schedule: Q01DX009 (ip), vehicle: saline with Tween-80
[16] = dose: 60.0 mg/kg/injection, schedule: Q01DX005 (ip), vehicle: saline with Tween-80
[17] = dose: 120.0 mg/kg/injection, schedule: Q01DX005 (ip), vehicle: saline with Tween-80
[18] = dose: 240.0 mg/kg/injection, schedule: Q01DX005 (ip), vehicle: saline with Tween-80

## O=NN(CCS(=O)CCCl)C(=O)NC1CCCCC1 (configuration not stated)
dose: 3.13 mg/kg/injection, schedule: Q01DX009 (ip), vehicle: water
  T/C: 102 % of control
dose: 6.25 mg/kg/injection, schedule: Q01DX009 (ip), vehicle: water
  T/C: 110 % of control
dose: 12.5 mg/kg/injection, schedule: Q01DX009 (ip), vehicle: water
  T/C: 111 % of control
dose: 25.0 mg/kg/injection, schedule: Q01DX009 (ip), vehicle: water
  T/C: 124 % of control
dose: 100.0 mg/kg/injection, schedule: Q01DX009 (ip), vehicle: water
  T/C: 159 % of control

## O=[N+]([O-])/C=C/c1c(Cl)cccc1Cl
dose: 12.5 mg/kg/injection, schedule: Q04DX003 (ip), vehicle: saline with Tween-80
  T/C: 99 % of control
dose: 25.0 mg/kg/injection, schedule: Q04DX003 (ip), vehicle: saline with Tween-80
  T/C: 100 % of control
dose: 50.0 mg/kg/injection, schedule: Q04DX003 (ip), vehicle: saline with Tween-80
  T/C: 100 % of control

## CN(C)c1ccc(C2OC(=N)C(=S)N2C)cc1 (configuration not stated)
[1]
  T/C: 112 % of control
[2]
  T/C: 109 % of control
[3]
  T/C: 109 % of control

## Cc1ccc(S(=O)(=O)NCCN(CCNS(=O)(=O)c2ccc(C)cc2)S(=O)(=O)c2ccc(C)cc2)cc1
dose: 100.0 mg/kg/injection, schedule: Q01DX001 (ip), vehicle: saline with Tween-80
  T/C: 86 % of control
dose: 200.0 mg/kg/injection, schedule: Q01DX001 (ip), vehicle: saline with Tween-80
  T/C: 86 % of control
dose: 400.0 mg/kg/injection, schedule: Q01DX001 (ip), vehicle: saline with Tween-80
  T/C: 88 % of control

## NCCCCC(C(=O)NCC(=O)O)N(C(=O)OCc1ccccc1)C(=O)OCc1ccccc1 (configuration not stated)
[4]
  T/C: 101 % of control
[5]
  T/C: 101 % of control
[6]
  T/C: 90 % of control

## CC(=NC1CCCCC1)Nc1ccc(NC(=O)c2ccc(C(=O)Nc3ccc(NC(C)=NC4CCCCC4)cc3)cc2)cc1
dose: 25.0 mg/kg/injection, schedule: Q01DX005 (ip), vehicle: Klucel (hydroxypropylcellulose) (HPC)
  T/C: 98 % of control
[7]
  T/C: 104 % of control
[8]
  T/C: 98 % of control
[9]
  T/C: 102 % of control

## CCCCC1(CCCCCCCCC(=O)OCC)OCCO1
[7]
  T/C: 96 % of control
[8]
  T/C: 97 % of control
[9]
  T/C: 97 % of control

## NCCC(=O)NC(Cc1cnc[nH]1)C(=O)O (configuration not stated)
[10]
  T/C: 104 % of control
[11]
  T/C: 104 % of control
[12]
  T/C: 99 % of control
[13]
  T/C: 98 % of control

## Cc1ccccc1N=Cc1ccc(N(C)C)cc1
[14]
  T/C: 91 % of control
[15]
  T/C: 87 % of control

## C[CH2][Sn]([CH2]C)([CH2]C)[O]C(=O)CO
dose: 1.56 mg/kg/injection, schedule: Q01DX009 (ip), vehicle: saline with Tween-80
  T/C: 115 % of control
dose: 3.12 mg/kg/injection, schedule: Q01DX009 (ip), vehicle: saline with Tween-80
  T/C: 122 % of control

## CC(=O)OCCN1c2ccccc2Sc2cnccc21
[14]
  T/C: 100 % of control
[15]
  T/C: 100 % of control
dose: 400.0 mg/kg/injection, schedule: Q01DX009 (ip), vehicle: saline with Tween-80
  T/C: 95 % of control

## Cc1ccc(N)c(C(=O)Nc2ccc(Cl)cc2)c1
[4]
  T/C: 104 % of control
[5]
  T/C: 91 % of control
[6]
  T/C: 92 % of control

## CN1C(=O)C(Br)(Br)CC1c1cccnc1 (configuration not stated)
[1]
  T/C: 101 % of control
[2]
  T/C: 109 % of control
[3]
  T/C: 100 % of control

## [N-]=[N+]=CC(=O)C1OC1c1ccc(Br)cc1 (configuration not stated)
dose: 25.0 mg/kg/injection, schedule: Q01DX005 (ip), vehicle: saline with Tween-80
  T/C: 98 % of control
[4]
  T/C: 93 % of control
[5]
  T/C: 91 % of control
[6]
  T/C: 95 % of control

## CC1(C)COC(=O)C1=C(C#N)C#N
dose: 25.0 mg/kg/injection, schedule: Q04DX003 (ip), vehicle: saline
  T/C: 100 % of control
dose: 50.0 mg/kg/injection, schedule: Q04DX003 (ip), vehicle: saline
  T/C: 98 % of control
dose: 100.0 mg/kg/injection, schedule: Q04DX003 (ip), vehicle: saline
  T/C: 102 % of control

## COc1c(C)n(C2OC(CO)C(O)C2O)ccc1=O (configuration not stated)
[10]
  T/C: 104 % of control
[11]
  T/C: 100 % of control
[12]
  T/C: 103 % of control
[13]
  T/C: 98 % of control

## O=C1C2=C(C(=O)c3cnccc31)C1C=CC2CC1 (configuration not stated)
dose: 25.0 mg/kg/injection, schedule: Q01DX005 (ip), vehicle: DMSO
  T/C: 98 % of control
dose: 50.0 mg/kg/injection, schedule: Q01DX005 (ip), vehicle: DMSO
  T/C: 92 % of control and 98 % of control
[7]
  T/C: 106 % of control
dose: 100.0 mg/kg/injection, schedule: Q01DX005 (ip), vehicle: DMSO
  T/C: 122 % of control
[8]
  T/C: 103 % of control
[9]
  T/C: 98 % of control

## Cc1ccc(NC(=O)Oc2ccc(Cl)c(C)c2)c([N+](=O)[O-])c1
[14]
  T/C: 87 % of control
[15]
  T/C: 88 % of control

## O=C1c2ccccc2C2(O)C3c4ccccc4CCN3CN12 (configuration not stated)
[7]
  T/C: 100 % of control
[8]
  T/C: 101 % of control
[9]
  T/C: 101 % of control

## N#C/C(=C/c1ccco1)c1ccc(Cl)cc1
dose: 50.0 mg/kg/injection, schedule: Q01DX009 (ip), vehicle: Klucel (hydroxypropylcellulose) (HPC)
  T/C: 90 % of control
dose: 100.0 mg/kg/injection, schedule: Q01DX009 (ip), vehicle: Klucel (hydroxypropylcellulose) (HPC)
  T/C: 95 % of control
dose: 200.0 mg/kg/injection, schedule: Q01DX009 (ip), vehicle: Klucel (hydroxypropylcellulose) (HPC)
  T/C: 92 % of control

## O=CNc1c(Nc2ccccc2)nc(-c2ccccc2)[nH]c1=O
dose: 15.0 mg/kg/injection, schedule: Q01DX009 (ip), vehicle: saline with Tween-80
  T/C: 105 % of control
dose: 30.0 mg/kg/injection, schedule: Q01DX009 (ip), vehicle: saline with Tween-80
  T/C: 91 % of control
dose: 60.0 mg/kg/injection, schedule: Q01DX009 (ip), vehicle: saline with Tween-80
  T/C: 91 % of control

## Cc1cccc(C2=NC(=C3CCCCC3)C(=O)O2)c1
[16]
  T/C: 101 % of control
[17]
  T/C: 100 % of control
[18]
  T/C: 100 % of control

## CCCCCN(CCNc1cc(OC)cc2cccnc12)C(C)CC (configuration not stated)
dose: 12.5 mg/kg/injection, schedule: Q01DX005 (ip), vehicle: saline
  T/C: 112 % of control
dose: 25.0 mg/kg/injection, schedule: Q01DX005 (ip), vehicle: saline
  T/C: 103 % of control
dose: 50.0 mg/kg/injection, schedule: Q01DX005 (ip), vehicle: saline
  T/C: 101 % of control and 97 % of control
dose: 100.0 mg/kg/injection, schedule: Q01DX005 (ip), vehicle: saline
  T/C: 100 % of control

## COC(=O)C1=C(C)OC2OCCC12 (configuration not stated)
[16]
  T/C: 110 % of control
[17]
  T/C: 101 % of control
[18]
  T/C: 102 % of control

## O=c1c(N=Nc2ccccc2Cl)c(O)n(-c2ccccc2Cl)c(=S)n1-c1ccc(Cl)cc1
dose: 100.0 mg/kg/injection, schedule: Q01DX001 (ip), vehicle: Klucel (hydroxypropylcellulose) (HPC)
  T/C: 109 % of control
dose: 200.0 mg/kg/injection, schedule: Q01DX001 (ip), vehicle: Klucel (hydroxypropylcellulose) (HPC)
  T/C: 104 % of control
dose: 400.0 mg/kg/injection, schedule: Q01DX001 (ip), vehicle: Klucel (hydroxypropylcellulose) (HPC)
  T/C: 96 % of control

## COc1cc2c(c(OC)c1OC)-c1ccc(O)c(=O)cc1C(N)CC2 (configuration not stated)
dose: 3.12 mg/kg/injection, schedule: Q01DX008 (ip), vehicle: saline
  T/C: 101 % of control and 97 % of control
dose: 6.25 mg/kg/injection, schedule: Q01DX008 (ip), vehicle: saline
  T/C: 100 % of control and 102 % of control
dose: 12.5 mg/kg/injection, schedule: Q01DX008 (ip), vehicle: saline
  T/C: 102 % of control and 105 % of control
dose: 25.0 mg/kg/injection, schedule: Q01DX008 (ip), vehicle: saline
  T/C: 102 % of control and 105 % of control
dose: 50.0 mg/kg/injection, schedule: Q01DX008 (ip), vehicle: saline
  T/C: 105 % of control and 110 % of control
dose: 100.0 mg/kg/injection, schedule: Q01DX008 (ip), vehicle: saline
  T/C: 109 % of control and 113 % of control

## COc1ccc(N2C(=O)C(=O)C(C(C)=O)C2=O)cc1 (configuration not stated)
dose: 100.0 mg/kg/injection, schedule: Q04DX002 (ip), vehicle: saline with Tween-80
  T/C: 100 % of control
dose: 200.0 mg/kg/injection, schedule: Q04DX002 (ip), vehicle: saline with Tween-80
  T/C: 94 % of control

## COc1ccc(Cc2nccc3cc(OC)c(OC)cc23)cc1OC
dose: 12.5 mg/kg/injection, schedule: Q01DX009 (ip), vehicle: saline
  T/C: 104 % of control
[10]
  T/C: 109 % of control
